US4794114A, “Inhibition of interleukin-1 production by monocytes and/or macrophages” (SmithKline Beckman Corporation, priority 1987, dated 1988)
Like-named read-outs stand apart in the source and are kept apart here.

Experiments:
[1] = test system: A375 melanoma cells; assay: tumoricidal activity of LPS-treated human monocytes in the kill of A375 melanoma cells; format: cell-based; conditions: 10^-5 to 10^-8 M
[2] = test system: endotoxin shock in C57B1/6 mice; format: in vivo, mouse; conditions: mouse, in vivo
Procedure: Mice are very resistant to the lethal effects of bacterial lipopolysaccharides (LPS). D-Galactosamine (D-GALN) induces a high degree of sensitization to the lethal effects of LPS in mice and other experimental animals. [See, Galanos et al., Proc. Natl. Acad Sci. USA., 76, 5939 (1979)]. In mice, depending on the strain and age, the sensitivity to endotoxin can be increased many thousand-fold.
A number of preliminary experiments were carried out to establish this model of lethal endotoxin shock.

[3] = test system: IL-1 production by human monocytes; assay: in vitro IL-1 production by LPS-stimulated human peripheral blood monocytes (EL-4 readout); format: cell-based; conditions: for inhibition at 1 µM: 10^-6 M; for inhibition at 0.1 µM: 10^-7 M
Procedure: The effects of antiinflammatory/antiarthritic drugs of different classes, including Compound 1 on the in vitro production of IL-1 by human monocytes was examined.
(§1) Bacterial lipopolysaccharide (LPS) was used to induce IL-1 production by human peripheral blood monocytes. IL-1 activity was measured by its ability to stimulate a Interleukin 2 (IL-2) producing cell line (EL-4) to secrete IL-2, in concert with A23187 ionophore, according to the method of Simon et al., J. Immunol. Methods, 84, 85, (1985). Human peripheral blood monocytes were isolated and purified from either fresh blood preparations from volunteer donors, or from blood Bank buffy coats, according to the procedure of Colotta et al., J. Immunol., 132, 936 (1984). 1×10^6 of such monocytes are plated in 24-well plates at a concentration of 2 million/ml per well. The cells were allowed to adhere for 2 hours, after which time non-adherent cells were removed by gentle washing. Test compounds were then added to the cells for 1 hour (hr) before the addition of lipopolysaccharide (10 ng/ml unless otherwise noted), and the cultures were incubated at 37° C. for an additional 24 hours. At the end of the incubation period, culture supernatants were removed and clarified of cells and all debris. Culture supernatants were immediately assayed for IL-1 biological activity as well as prostaglandin and/or leukotriene concentrations by radioimmunoassay.
^(a) All compounds, except chloroquine, were dissolved in absolute
ethanol at 10^-2 M, which was subsequently diluted further in tissue
assay system at doses tested. Furthermore, test samples were dialyzed
prior to testing in the IL1 assay.
In order to elucidate the mechanism by which Compound 1 mediates its anti-inflammatory activity, the ability of this compound and two closely related analog metabolites, (i.e., the analogs of Compound 1 wherein X is S(0)n and n is 1 or 2) to inhibit human IL-1 production in vitro was evaluated according to the method of Example 1. Briefly, 1×10^6 human peripheral blood monocytes were plated in 24-well plates and allowed to adhere for 1 hr at 37° C. The above compounds were added to a final concentration of 10^-5 M to 10^-8 M. The monocytes were stimulated to produce IL-1 with 1 ng/ml LPS after a 1 hr pretreatment of the cells with the respective compounds.
The inhibitory effect of additional compounds of Formula (I) on the in vitro production of IL-1 production of IL-1 by human monocytes was determined according to the procedure of Examples 1 and 2.

[4] = test system: EL-4/CTLL assay; assay: direct effect on IL-1 standard in EL-4/CTLL readout assay; format: cell-based
Procedure: as §1
Inhibition of IL-1 production by Compound 1 is not due to a carryover effect of the drug on the cells sed in the IL-1 readout assay. […]

[5] = test system: IL-2; assay: IL-2 production or response; format: cell-based
[6] = test system: IL-1 production by splenic adherent cells; assay: adjuvant-induced arthritis in the rat: IL-1 production by LPS-stimulated splenic adherent cells; format: in vivo; conditions: for IL-1 Production (splenic adherent cells), % normal control: mg/kg: Compound 1 60, indomethacin 2.0, prednisolone 10, methotrexate 0.3, D-penicillamine 50
Procedure: (§2) Adjuvant-induced arthritis in the rat is a model of systemic inflammation with characteristics similar to rheumatoid arthritis in man. […] This model was employed to assess the effect of Compound 1 in vivo on this elevated IL-1 production. Briefly, rats were injected on day 0 with Freund's complete adjuvant in the right hind leg. Drugs were prepared as a suspension in tragacanth and administered daily per os either prophylactically (days 1 to 16) or therapeutically in a short-term modality (days 14 to 16). In all cases, final administration of drug occurred at 3 hours prior to sacrifice. Spleens were removed from these rats and the adherent cells were assessed for their ability to produce IL-1 in vitro in response to stimulation by LPS.
(§3) PROPHYLACTIC TREATMENT: Drugs were administered daily p.o. as a suspensio
(§4) in tragacanth from day 1 to day 16. Final dose given 3 hrs before
(§5) TREATMENT: Drugs were administered daily p.o. as above from
(§6) day 14 to day 16. Final dose given 3 hrs before sacrifice.
(§7) ***P < 0.01 Indomethacin 2.0 mg/kg
(§8) **P < 0.05 Compound 1 60 mg/kg
(§9) *P < 0.10 Prednisolone 10 mg/kg
(§10) D-Penicillamine 50 mg/kg

[7] = test system: monocytes; assay: in vitro; format: cell-based, human
Procedure: as §1
^(b) At doses at or above 10^-5 M, this compound exerted some

[8] = immunosuppressive effect
[9] = test system: adjuvant-induced arthritis in the rat; assay: adjuvant-induced arthritis in the rat: right leg paw edema; format: in vivo; conditions: mg/kg: Compound 1 60, indomethacin 2.0, prednisolone 10, methotrexate 0.3, D-penicillamine 50
Procedure: as §2, §3, §4, §5, §6, §7, §8, §9, §10

[10] = test system: alpha interferon; assay: alpha interferon (other inducible proteins) production; format: cell-based
[11] = test system: PGE2; assay: in vitro prostaglandin (PGE2) synthesis by LPS-stimulated human monocytes, RIA; format: cell-based
Procedure: as §1
^(c) PGE2 was assayed using an RIA kit.

[12] = test system: human peripheral blood lymphocytes; assay: lectin-stimulated mitogenesis of human peripheral blood lymphocytes; format: cell-based
[13] = test system: splenic adherent cells; assay: adjuvant-induced arthritis in the rat: % splenic adherent cells; format: in vivo; conditions: mg/kg: Compound 1 60, indomethacin 2.0, prednisolone 10, methotrexate 0.3, D-penicillamine 50
Procedure: as §2, §3, §4, §5, §6, §7, §8, §9, §10

[14] = Homo sapiens, Monocyte, wide range of LPS, read-out: inhibition of IL-1 production
[15] = Homo sapiens, Monocyte, read-out: % Inhibition IL-1
[16] = prophylactic, daily p.o. days 1-16
[17] = therapeutic, daily p.o. days 14-16

## Fc1ccc(-c2nc3n(c2-c2ccncc2)CCS3)cc1 [Compound 1]
[1]
  effect on monocyte tumoricidal activity: did not effect that biological activity
[2]
  protection from lethal effects of LPS/GALN: protected the animals from the lethal effects of LPS/GALN
[3]
  dose dependence of IL-1 production inhibition: dose dependent
  inhibition of IL-1 production: inhibits IL-1 production
[3]; 1 ng/ml LPS
  relative potency against the two analogs: slightly more potent than the two analogs tested
[3]; Homo sapiens, Monocyte, 1 ng/ml LPS, 1 hr pretreatment
  IC50: 250 nM
[3]; Homo sapiens, Monocyte, 10^-5 M, read-out: % Inhibition IL-1
  inhibition at 10 µM: 99%
[3]; [14]
  inhibition at 1 µM: ~80%
  inhibition at 0.1 µM: ~40%
[3]; Homo sapiens, Monocyte, Table 3, read-out: % Inhibition @ 10^-6 M
  inhibition at 1 µM: 70%
[3]; [15]
  inhibition at 1 µM: 96%
  inhibition at 0.1 µM: 88%
[3]; submicromolar range (10^-7 M)
  inhibition of IL-1 production: greater than 80%
[3]; variety of activators
  inhibition of IL-1 production induced by a variety of activators: inhibits IL-1 production induced by a variety of activators
[4]; 10^-5 or higher
  effect on the IL-1 assay system: had an effect on the assay system
[4]; lower doses / doses tested
  direct effect on the IL-1 assay: no direct effect on the IL-1 assay
[5]; IL-2 production
  inhibition of IL-2 production: does not inhibit either IL-2 production or response
[5]; IL-2 response
  inhibition of IL-2 response: does not inhibit either IL-2 production or response
[6]; prophylactic administration
  decrease in IL-1 production: more dramatic decrease in IL-1 production than indomethacin which resulted in nearly complete normalization of this parameter
[6]; [16]
  IL-1 Production (splenic adherent cells), % normal control: 139 ± 28 % normal control
[6]; [17]
  IL-1 Production (splenic adherent cells), % normal control: 392 ± 129 % normal control
[6]; therapeutic, short-term treatment
  effect in adjuvant arthritic rats: no effect
[7]
  nonspecific toxic effect on other functions of activated monocytes: does not exert a nonspecific toxic effect on other functions of activated monocytes
[8]
  immunosuppressive effect: not immunosuppressive
[9]; [16]
  Right leg paw edema, % normal control: 134 ± 9 % normal control
[9]; [17]
  Right leg paw edema, % normal control: 159 ± 7 % normal control
[10]
  effect on other inducible proteins such as alpha interferon: not effected
[11]; Homo sapiens, Monocyte, 10^-5 M, read-out: % Inhibition PGE2
  inhibition at 10 µM: 99%
[11]; Homo sapiens, Monocyte, 10^-6 M, read-out: % Inhibition PGE2
  inhibition at 1 µM: 94%
[11]; Homo sapiens, Monocyte, 10^-7 M, read-out: % Inhibition PGE2
  inhibition at 0.1 µM: 79%
[11]; submicromolar range (10^-7 M)
  inhibition of prostaglandin synthesis: greater than 80%
[12]
  inhibition of lectin-stimulated mitogenesis: does not inhibit lectin-stimulated mitogenesis
[13]; [16]
  % Adherent Cells (splenic), % normal control: 98 ± 29 % normal control
[13]; [17]
  % Adherent Cells (splenic), % normal control: 216 ± 137 % normal control
